Test results as given in patent US20240101573A1, “MACROCYCLIC K-RAS G12C INHIBITOR, PREPARATION METHOD THEREFOR AND USE THEREOF” (Abbisko Therapeutics Co., Ltd., priority 2020, published 2024).

Columns and labels:
H358 = assay: Anti-proliferation 2D CTG test (H358); type: cell-based; settings: H358 cells, 1500 cells/well, 5 days incubation with compound, CTG readout
Description: (§1) When the cell confluency was 80%, the cells were isolated with 0.25% trypsin. The isolated cells were resuspended in 5 mL of fresh cell culture medium and centrifuged to collect the cells. The number of cells were counted at the same time. Then, the cells were suspended in a culture medium at a moderate concentration. The cells were placed into a 96-well plate with 1500 cells/well for H358 and 500 cells/well for MIAPACA-2. The 96-well plate was placed in an incubator at 37° C. and incubated overnight.
(§2) 2) Day 1: processing of compound
(§3) A 2 mM stock solution was serially diluted at 10 points at a ratio of 1:3. 5× culture medium containing the compound was transferred to the corresponding wells of 96 wells. The final peak concentration of the compound was […], and the final concentration of DMSO was 0.5%. The 96-well plate was placed in the incubator at 37° C. and incubated for 5 days.
(§4) 3) Baseline reading. 4) Day 6: reading of signals
(§5) A detection reagent (CTG) was added at 50 μL/well, and the signals were read in an Envision instrument.
(§6) The percentage of inhibition ([…]) at each compound concentration was calculated based on the signals from the HPE and ZPE control wells contained in each assay plate and the fluorescence signals from individual compound wells. The inhibition rate in the ZPE control wells containing the enzyme and substrate was 0%, and the inhibition rate in the HPE control wells only containing the substrate was […]. By testing the compound in terms of numeric concentration and inhibition percentage, the compound concentration required for […] inhibition (IC50) was determined using a four-parameter logarithmic dose-response equation. The endpoint value (IC50) of the reference compound was evaluated in each experiment as a quality control measure. If the endpoint value was within three times the expected value, the experiment was considered acceptable.

MIA PaCa-2 = assay: Anti-proliferation 2D CTG test (MIA PaCa-2); type: cell-based; settings: MIAPACA-2 cells, 500 cells/well, 5 days incubation with compound, CTG readout
Description: as §1, §2, §3, §4, §5, §6

[1] = Homo sapiens, MIA PaCa-2, 120 h

Row | Molecule | IC50 (H358) | IC50 (MIA PaCa-2) | IC50 (H358; Homo sapiens, NCI-H358, 120 h) | IC50 (MIA PaCa-2; [1])
1 | 2^4-((S)-4-acryloyl-2-methylpiperazin-1-yl)-2^6,3^6-difluoro-7-hydroxy-1^2-isopropyl-2^1,2^2-dihydro-4-oxa-2(1,7)-pyrido[2,3-d]pyrimidina-1(3,4)-pyridina-3(1,2)-benzocycloheptane-2^2-one [Example 5] | 19 nM | 20 nM | – | –
2 | 11-((S)-4-acryloyl-2-methylpiperazin-1-yl)-2-((dimethylamino)methyl)-15,21-difluoro-7-isopropyl-3a,20a-dihydro-9H,20H-12,14-(epiethane[1,2]diylidene)benzo[b][1,3]dioxazolo[4,5-j]pyri do[3,4-h]pyrimido[6,1-f][1]oxa[5,7]diazacyclododecin-9-one [Example 64] | 3 nM | 1 nM | – | –
3 | C=CC(=O)N1CCN(c2nc(=O)n3c4nc(c(F)cc24)-c2c(F)cccc2OCC(O)C(O)c2ccnc(C(C)C)c2-3)[C@@H](C)C1 (stereo partly drawn) [Example 1, 2^4-((S)-4-acryloyl-2-methylpiperazin-1-yl)-2^6,3^6-difluoro-6,7-dihydroxy-1^2-isopropyl-2^1,2^2-dihydro-4-oxa-2(1,7)-pyrido[2,3-d]pyrimidina-1(3,4)-pyridina-3(1,2)-benzocycloheptane-2^2-one] | 13 nM | 10 nM | – | –
4 | C=CC(=O)N1CCN(c2nc(=O)n3c4nc(c(F)cc24)-c2c(F)cccc2OCC(O)C(O)c2ccnc(C(C)C)c2-3)[C@@H](C)C1 (stereo partly drawn) [Example 1-R, (R)-2^4-((S)-4-acryloyl-2-methylpiperazin-1-yl)-2^6,3^6-difluoro-6,7-dihydroxy-1^2-isopropyl-2^1,2^2-dihydro-4-oxa-2(1,7)-pyrido[2,3-d]pyrimidina-1(3,4)-pyridina-3(1,2)-benzocycloheptane-2^2-one] | 9 nM | 12 nM | – | –
5 | C=CC(=O)N1CCN(c2nc(=O)n3c4nc(c(F)cc24)-c2c(F)cccc2OCC(O)C(O)c2ccnc(C(C)C)c2-3)[C@@H](C)C1 (stereo partly drawn) [Example 1-S, (S)-2^4-((S)-4-acryloyl-2-methylpiperazin-1-yl)-2^6,3^6-difluoro-6,7-dihydroxy-1^2-isopropyl-2^1,2^2-dihydro-4-oxa-2(1,7)-pyrido[2,3-d]pyrimidina-1(3,4)-pyridina-3(1,2)-benzocycloheptane-2^2-one] | 931 nM | 100 nM | – | –
6 | C=CC(=O)N1C[C@H](C)N(c2nc(=O)n3c4nc(c(F)cc24)-c2c(F)cccc2OCC(O)C(O)c2ccnc(C(C)C)c2-3)C[C@H]1C (stereo partly drawn) [Example 2, (R)-2^4-((2S,5R)-4-acryloyl-2,5-dimethylpiperazin-1-yl)-2^6,3^6-difluoro-6,7-dihydroxy-1^2-isopropyl-2^1,2^2-dihydro-4-oxa-2(1,7)-pyrido[2,3-d]pyrimidina-1(3,4)-pyridina-3(1,2)-benzocycloheptane-2^2-one] | 2 nM | 1 nM | – | –
7 | C=CC(=O)N1C[C@H](C)N(c2nc(=O)n3c4nc(c(F)cc24)-c2c(F)cccc2OCC(O)C(O)c2ccnc(C(C)C)c2-3)C[C@H]1C (stereo partly drawn) [Example 3, (S)-2^4-((2S,5R)-4-acryloyl-2,5-dimethylpiperazin-1-yl)-2^6,3^6-difluoro-6,7-dihydroxy-1^2-isopropyl-2^1,2^2-dihydro-4-oxa-2(1,7)-pyrido[2,3-d]pyrimidina-1(3,4)-pyridina-3(1,2)-benzocycloheptane-2^2-one] | 1250 nM | 400 nM | – | –
8 | C=CC(=O)N1CCN(c2nc(=O)n3c4nc(c(F)cc24)-c2c(F)cccc2OCC(O)C(=O)c2ccnc(C(C)C)c2-3)[C@@H](C)C1 (stereo partly drawn) [Example 4, 2^4-((S)-4-acryloyl-2-methylpiperazin-1-yl)-2^6,3^6-difluoro-6-hydroxy-1^2-isopropyl-2^1,2^2-dihydro-4-oxa-2(1,7)-pyrido[2,3-d]primidina-1(3,4)-pyridina-3(1,2)-benzocycloheptane-2^2,7-dione] | – | – | 73 nM | 83 nM
9 | C=CC(=O)N1CCN(c2nc(=O)n3c4nc(c(F)cc24)-c2c(F)cccc2OCC(O)C(OC(=O)CC)c2ccnc(C(C)C)c2-3)[C@@H](C)C1 (stereo partly drawn) [Example 6, 2^4-((S)-4-acryloyl-2-methylpiperazin-1-yl)-2^6,3^6-difluoro-6-hydroxy-1^2-isopropyl-2^2-oxo-2^1,2^2-dihydro-4-oxa-2(1,7)-pyrido[2,3-d]pyrimidina-1(3,4)-pyridina-3(1,2)-benzocycloheptane-7-yl propionate] | – | – | 10 nM | 10 nM
10 | C=CC(=O)N1CCN(c2nc(=O)n3c4nc(c(F)cc24)-c2c(F)cccc2OCC(O)C(OC(C)=O)c2ccnc(C(C)C)c2-3)[C@@H](C)C1 (stereo partly drawn) [Example 7, 2^4-((S)-4-acryloyl-2-methylpiperazin-1-yl)-2^6,3^6-difluoro-6-hydroxy-1^2-isopropyl-2^2-oxo-2^1,2^2-dihydro-4-oxa-2(1,7)-pyrido[2,3-d]pyrimidina-1(3,4)-pyridina-3(1,2)-benzocycloheptane-7-yl acetate] | – | – | 15 nM | 10 nM
11 | C=CC(=O)N1C[C@H](C)N(c2nc(=O)n3c4nc(c(F)cc24)-c2c(F)cccc2OCC(O)C(OC(C)=O)c2ccnc(C(C)C)c2-3)C[C@H]1C (stereo partly drawn) [Example 8, 2^4-((2S,5R)-4-acryloyl-2,5-dimethylpiperazin-1-yl)-2^6,3^6-difluoro-6-hydroxy-1^2-isopropyl-2^2-oxo-2^1,2^2-dihydro-4-oxa-2(1,7)-pyrido[2,3-d]pyrimidina-1(3,4)-pyridina-3(1,2)-benzocycloheptane-7-yl acetate] | – | – | 9 nM | 3 nM
12 | C=CC(=O)N1CCN(c2nc(=O)n3c4nc(c(F)cc24)-c2c(F)cccc2OCC(O)C(OC(=O)C(C)C)c2ccnc(C(C)C)c2-3)[C@@H](C)C1 (stereo partly drawn) [Example 9, 2^4-((S)-4-acryloyl-2-methylpiperazin-1-yl)-2^6,3^6-difluoro-6-hydroxy-1^2-isopropyl-2^2-oxo-2^1,2^2-dihydro-4-oxa-2(1,7)-pyrido[2,3-d]pyrimidina-1(3,4)-pyridina-3(1,2)-benzocycloheptane-7-yl isobutyrate] | – | – | 21 nM | 13 nM
13 | C=CC(=O)N1CCN(c2nc(=O)n3c4nc(c(F)cc24)-c2c(F)cccc2OCC(O)C(OC(=O)C2CC2)c2ccnc(C(C)C)c2-3)[C@@H](C)C1 (stereo partly drawn) [Example 10, 2^4-((S)-4-acryloyl-2-methylpiperazin-1-yl)-2^6,3^6-difluoro-6-hydroxy-1^2-isopropyl-2^2-oxo-2^1,2^2-dihydro-4-oxa-2(1,7)-pyrido[2,3-d]pyrimidina-1(3,4)-pyridina-3(1,2)-benzocycloheptane-7-yl cyclopropanecarboxylate] | – | – | 5 nM | 4 nM
14 | C=CC(=O)N1CCN(c2nc(=O)n3c4nc(c(F)cc24)-c2c(F)cccc2OCC(O)C(OC(=O)OC(C)(C)C)c2ccnc(C(C)C)c2-3)[C@@H](C)C1 (stereo partly drawn) [Example 11, 2^4-((S)-4-acryloyl-2-methylpiperazin-1-yl)-2^6,3^6-difluoro-6-hydroxy-1^2-isopropyl-2^2-oxo-2^1,2^2-dihydro-4-oxa-2(1,7)-pyrido[2,3-d]pyrimidina-1(3,4)-pyridina-3(1,2)-benzocycloheptane-7-yl tert-butylcarbonate] | – | – | 26 nM | 21 nM
15 | C=CC(=O)N1CCN(c2nc(=O)n3c4nc(c(F)cc24)-c2c(F)cccc2OCC(OC(=O)CC)C(OC(=O)CC)c2ccnc(C(C)C)c2-3)[C@@H](C)C1 (stereo partly drawn) [Example 12, 2^4-((S)-4-acryloyl-2-methylpiperazin-1-yl)-2^6,3^6-difluoro-1^2-isopropyl-2^2-oxo-2^1,2^2-dihydro-4-oxa-2(1,7)-pyrido[2,3-d]pyrimidina-1(3,4)-pyridina-3(1,2)-benzocycloheptane-6,7-diyl dipropionate] | – | – | 26 nM | 26 nM
16 | C=CC(=O)N1CCN(c2nc(=O)n3c4nc(c(F)cc24)-c2c(ccc(Cl)c2F)OCC(O)C(OCC)c2ccnc(C(C)C)c2-3)[C@@H](C)C1 (stereo partly drawn) [Example 73, (S)-2^4-((S)-4-acryloyl-2-methylpiperazin-1-yl)-3^5-chloro-7-ethoxy-2^6,3^6-difluoro-6-hydroxy-1^2-isopropyl-2^1,2^2-dihydro-4-oxa-2(1,7)-pyrido[2,3-d]pyrimidina-1(3,4)-pyridina-3(1,2)-benzocycloheptane-2^2-one] | 668 nM | – | – | –
17 | C=CC(=O)N1C[C@H](C)N(c2nc(=O)n3c4nc(c(F)cc24)-c2c(ccc(Cl)c2F)OCC(O)C(OCC)c2ccnc(C(C)C)c2-3)C[C@H]1C (stereo partly drawn) [Example 77, (S)-(S)-2^4-((2S,5R)-4-acryloyl-2,5-dimethylpiperazin-1-yl)-3^5-chloro-7-ethoxy-2^6,3^6-difluoro-6-hydroxy-1^2-isopropyl-2^1,2^2-dihydro-4-oxa-2(1,7)-pyrido[2,3-d]pyrimidina-1(3,4)-pyridina-3(1,2)-benzocycloheptane-2^2-one] | 523 nM | – | – | –
